Data taken from article PMC10705561 (bioRxiv, 2023).

Assays:
[1] = tested on: rNsp5-S144M recombinant SARS-CoV-2; type: cell-based
[2] = tested on: rNsp5-L50F/E166V recombinant SARS-CoV-2; type: cell-based

CC(C)(C)[C@H](NC(=O)C(F)(F)F)C(=O)N1C[C@H]2[C@@H]([C@H]1C(=O)N[C@H](C#N)C[C@@H]1CCNC1=O)C2(C)C [nirmatrelvir]
EC50 fold-increase compared to WT [1]: 12.5
EC50 fold-increase compared to WT [2]: 24.2
